Test [1] concerns rats. The experiment in a line: Pilocarpine-induced Status Epilepticus in Rats (prevention; intervention @ 30 min). The settings on record: for Prevention, Protection: rats, pilocarpine-induced status epilepticus.
Procedure: The animal testing was performed using the protocols developed in the Anticonvulsant Screening Program (ASP) at the National Institute of Neurological Disorders and Stroke (NINDS), National Institutes of Health (NIH).
For test [2], the system named is SMN2 promoter. The experiment in a line: SMN2 promoter β-lactamase reporter assay in NSC34 motor neuron-like cells. Type of test: cell-based. The settings on record: for Promoter (SMN2 promoter test, summary YES/NO): Table 13 summary; for SMN2 promoter activity: treatment for 19 hours at a concentration of 1 μM. On the procedure: FIG. 30 illustrates a screen for SMN2 expression of a number of compounds described herein.
SMN2 promoter activity was measured using NSC34 motor neuron-like cells stably transfected with a β-lactamase (BLA) reporter gene under the control of a 3.4-kilobase fragment of the SMN2 promoter. D156844 was used as a positive control for this assay.

Test [3] relates to mice. Kind of test: Maximal Electroshock Seizure (MES) test, mice i.p. Type of test: in vivo. The settings on record: for activity in the MES test: mice; for MES, fraction of animals: mice i.p.
Test [4] has as its system mice. The experiment in a line: 6 Hz (minimal clonic seizure) model, mice i.p. In kind it is in vivo. The settings on record: for 6 Hz (32 mA), fraction of animals: mice i.p.; for activity in the 6 Hz (minimal clonic seizure) model: mice.
Test [5] has as its system mice. Kind of test: Subcutaneous Metrazol Seizure threshold (s.c. MET) test, mice i.p. Type of test: in vivo. The settings on record: for activity in the s.c. MET test: mice, at 300 mg/kg; for s.c. MET, fraction of animals: mice i.p.
Setting [6] is: Rattus norvegicus, read-out: Prevention, Protection.
Setting [7] is: Rattus norvegicus, 0.5 h, read-out: Intervention @ 30 min, Protection.

Like-named read-outs stand apart in the source and are kept apart here.

In the case of `CC(CC(N)=O)Oc1ccc(C#N)cc1` (centres unmarked) [Compound O, 3-(4-Cyanophenoxy)butyramide], the responders at 450 mg/kg in test [1] (setting [6]) was 50%.
For the compound `CC(CC(=O)N1CCC(C(N)=O)CC1)c1ccc(OC(F)(F)F)cc1` (centres unmarked) [BN, 1-[3-(4-Trifluoromethoxy-phenyl)-butyryl]-piperidine-4carboxylic acidamide], in test [2] (NSC34 BLA reporter cells), the “SMN2 promoter assay, evidence of activity (may warrant further study)” value is listed as “show evidence of activity”. Further, in test [3] (at 300 mg/kg), the “activity in the MES test” value is on record as “activity”.
Take `Cc1ccc(C(C)CC(N)=O)c(C)n1` (racemic) [DF]: the “6 Hz (32 mA), fraction of animals” value in test [4] (100 mg/kg @ 2.0 hr) and in test [4] (100 mg/kg @ 4.0 hr) was 1/4 @ 2.0 in each case.
For the compound `CC(CC(=O)N[C@@H](C)C(N)=O)c1ccc(OC(F)(F)F)cc1` (stereo partly drawn) [BS, N-((S)-1-Carbamoyl-ethyl)-3-(4-trifluoromethoxy-phenyl)-butyramide], in test [3] (at 300 mg/kg), the “activity in the MES test” value is “activity”. Further, the “6 Hz (32 mA), fraction of animals” value in test [4] (100 mg/kg @ 1.0 hr) is 1/4 @ 1.0.
As for `CC(C)C[C@H](NC(=O)[C@@H]1C[C@H]1c1ccccc1)C(N)=O` (mixture of isomers) [Compound Q, trans-2-Phenylcyclopropane-carboxylic acid-((S)-1-carbamoyl-3-methylbutyl)amide], the “activity in the 6 Hz (minimal clonic seizure) model” value (“activity in the 6 Hz” below) in test [4] (at 300 mg/kg) is recorded as “activity”.
Turning to `CC(CC(N)=O)c1ccc2c(c1)OCCO2` (centres unmarked) [K, 3-(3,4-ethylenedioxy-phenyl)butyramide], the “SMN2 promoter assay, particularly strong hits” value in test [2] (NSC34 BLA reporter cells) is recorded as “particularly strong hits”. Also, in test [2], the “Promoter (SMN2 promoter test, summary YES/NO)” value is “YES” and the SMN2 promoter activity entry is given as “increased SMN2 promoter activity”. Besides, in test [1] (setting [7]), the responders at 600 mg/kg was 38%. Moreover, the responders at 300 mg/kg in test [1] (setting [6]) worked out at 50%.
Consider `CCc1nccnc1C(C)CC(N)=O` (racemic) [DB], for which, in test [2], the SMN2 promoter activity entry is listed as “increased SMN2 promoter activity”. Moreover, the “6 Hz (32 mA), fraction of animals” value in test [4] (100 mg/kg @ 4.0 hr) is listed as 1/4 @ 4.0 hrs.
Regarding `CC(O)(CC(N)=O)c1ccc(OC(F)(F)F)cc1` (centres unmarked) [Compound CC, 3-hydroxy-3-(4(trifluoromethoxy)-phenyl)butanamide], the responders at 200 mg/kg in test [1] (setting [6]) was 100%. The “MES, fraction of animals” value in test [3] (100 mg/kg @ 0.5 hr) is listed as 3/3; in test [3] (100 mg/kg @ 4.0 hr), 2/3.
With `CNC(=O)CC(C)c1ccc(OC(F)(F)F)cc1` (centres unmarked) [BC, N-Methyl-3-(4-trifluoromethoxyphenyl)-butyramide], in test [5], the “activity in the s.c. MET test” value is given as “activity”.
`COc1ccc(C(C)CC(N)=O)cn1` (racemic) [CI]: the “6 Hz (32 mA), fraction of animals” value in test [4] (100 mg/kg @ 0.25 hr) is on record as 1/4 @ 0.25 hr.
On to `NC(=O)CC1(c2ccc(Cl)cc2)CCCCC1` [AK], for which the entries for the “MES, fraction of animals” value in test [3] (100 mg/kg @ 0.25 hr) and in test [3] (100 mg/kg @ 2.0 hr) were 3/4 and 1/4, respectively. Besides, the “6 Hz (32 mA), fraction of animals” value in test [4] (100 mg/kg @ 0.25 hr) is 4/4; in test [4] (100 mg/kg @ 0.5 hr), 3/4; in test [4] (100 mg/kg @ 1.0 hr), 1/4 @.
On to `CC(CC(N)=O)c1ccc(Cl)c(Cl)c1` (centres unmarked) [BW, 3-[3,4-dichloro-phenyl]butyramide], for which the “s.c. MET, fraction of animals” value in test [5] (30 mg/kg @ 4.0 hr) and in test [5] (100 mg/kg @ 4.0 hr) was 1/1 @ 4.0 in each case. In addition, the “MES, fraction of animals” value in test [3] (100 mg/kg @ 0.5 hr) is 1/3 @.
With `CC[C@H](NC(=O)CC(C)c1ccc(OC(F)(F)F)cc1)C(N)=O` (stereo partly drawn) [BR, N-((S)-1-Carbamoyl-propyl)-3-(4-trifluoromethoxy-phenyl)-butyramide], in test [3] (at 100 mg/kg), the “activity in the MES test” value is reported as “activity”. Besides, the “6 Hz (32 mA), fraction of animals” value in test [4] (100 mg/kg @ 0.5 hr) is 1/4 @ 0.5.
With `Cc1nccnc1C(C)CC(N)=O` (racemic) [CZ], the “6 Hz (32 mA), fraction of animals” value in test [4] (100 mg/kg @ 0.25 hr) was 1/4 @; in test [4] (100 mg/kg @ 0.5 hr), 1/4 @; in test [4] (100 mg/kg @ 2.0 hr), “hrs and 2/4”.
For `COc1ccc(C2(CC(N)=O)CCCC2)cc1` [AZ], the SMN2 promoter activity entry in test [2] is listed as “increased SMN2 promoter activity”.
Consider `CCOc1ccc(C(C)CC(N)=O)cc1` (racemic) [CA], for which, in test [2], the “Promoter (SMN2 promoter test, summary YES/NO)” value is given as “YES” and the SMN2 promoter activity entry is on record as “increased SMN2 promoter activity”. For the same compound, the “Prevention, Protection” value in test [1] (dose 600 mg/kg) is given as 100%. Besides, the “activity in the 6 Hz” value in test [4] (at 100 mg/kg) is given as “activity”.
With `CC(C)Oc1ccc(C(C)CC(N)=O)cc1` (racemic) [CB], the “Prevention, Protection” value in test [1] (dose 200 mg/kg) is 100%. For the same compound, the “MES, fraction of animals” value in test [3] (100 mg/kg @ 0.25 hr) is listed as 3/3; in test [3] (100 mg/kg @ 1.0 hr), 1/3.
With `CC(CC(N)=O)c1cnccn1` (racemic) [DC], in test [2], the “Promoter (SMN2 promoter test, summary YES/NO)” value is “YES” and the SMN2 promoter activity entry is given as “increased SMN2 promoter activity”.
Take `CC(C)c1ccc(C(C)CC(N)=O)cc1` (centres unmarked) [Compound AW, 3-(4-Isopropylphenyl)butyramide]: the SMN2 promoter activity entry in test [2] is “increased SMN2 promoter activity”. Also, the responders at 200 mg/kg in test [1] (setting [7]) was found to be 25%. The responders at 450 mg/kg in test [1] (setting [6]) stood at 75%. Also, in test [3] (at 300 mg/kg), the “activity in the MES test” value is “activity”. For the same compound, the “6 Hz (32 mA), fraction of animals” value is given as 4/4, 4/4 @ in test [4] (200 mg/kg @ 0.25 hr) and 4/4, 4/4 @ in test [4] (200 mg/kg @ 0.5 hr). Also, the “activity in the 6 Hz” value in test [4] (at 200 mg/kg) is recorded as “activity”.
Consider `CCC(CC(N)=O)c1ccc(OC)cc1` (centres unmarked) [AB, 3-(4-Methoxy-phenyl)-pentanoicacid amide], for which, in test [1] (setting [6]), the responders at 450 mg/kg was 100%.
With `CC[C@H](NC(=O)[C@@H]1C[C@H]1c1ccccc1)C(N)=O` (mixture of isomers) [Compound Q-1, trans-2-Phenylcyclopropane-carboxylic acid-((S)-1-carbamoyl-propyl)amide], the “activity in the s.c. MET test” value in test [5] is listed as “activity”. Also, the entries for the “MES, fraction of animals” value in test [3] (100 mg/kg @ 0.5 hr) and in test [3] (100 mg/kg @ 4.0 hr) were 2/3 and 1/3, respectively. The “activity in the MES test” value in test [3] (at 300 mg/kg) is recorded as “activity”. Besides, the “6 Hz (32 mA), fraction of animals” value is listed as 1/4 @0.25 in test [4] (50 mg/kg @ 0.25 hr); 4/4 in test [4] (100 mg/kg @ 0.25 hr); 3/4 in test [4] (100 mg/kg @ 0.5 hr); 4/4 in test [4] (100 mg/kg @ 1.0 hr); 1/4 in test [4] (100 mg/kg @ 2.0 hr). Moreover, the “activity in the 6 Hz” value in test [4] (at 100 mg/kg) is “activity”.
`NC(=O)C1CC1(c1ccccc1)c1ccccc1` (centres unmarked) [BB, 2,2-Diphenyl-cyclopropanecarboxylicacid amide]: the SMN2 promoter activity result in test [2] is on record as “increased SMN2 promoter activity”. Moreover, in test [4] (at 100 mg/kg), the “activity in the 6 Hz” value was “activity”.
Regarding `Cc1nc2ccccc2nc1C(C)CC(N)=O` (racemic) [DE], the “6 Hz (32 mA), fraction of animals” value in test [4] (100 mg/kg @ 0.25 hr) and in test [4] (100 mg/kg @ 0.5 hr) was 1/4 @ throughout.
For the compound `CC(CC(=O)N1CCOCC1)c1ccc(OC(F)(F)F)cc1` (centres unmarked) [BI, 1-Morpholin-4-yl-3-(4-trifluoromethoxy-phenyl)-butan-1-one], in test [5], the “activity in the s.c. MET test” value was “activity”. Further, the “6 Hz (32 mA), fraction of animals” value is reported as 2/4 in test [4] (50 mg/kg @ 0.25 hr) and 1/4 in test [4] (50 mg/kg @ 0.5 hr).
For the compound `Cc1cnc(C(C)CC(N)=O)c(C)n1` (racemic) [DD], in test [2], the “Promoter (SMN2 promoter test, summary YES/NO)” value is recorded as “YES” and the SMN2 promoter activity entry is on record as “increased SMN2 promoter activity”. In addition, the “6 Hz (32 mA), fraction of animals” value in test [4] (100 mg/kg @ 0.5 hr) is 1/4 @ 0.5 hr,.
As to `Cc1ccc(C(C)CC(N)=O)cn1` (racemic) [CH], the “6 Hz (32 mA), fraction of animals” value in test [4] (50 mg/kg @ 0.25 hr) is given as 1/4, 1/4; in test [4] (50 mg/kg @ 0.5 hr) it was 1/4, 1/4.
Turning to `CC(C)C[C@@H](NC(=O)CC(C)c1ccc(OC(F)(F)F)cc1)C(N)=O` (stereo partly drawn) [BP, (R)-4-Methyl-2-[3-(4-trifluoromethoxy-phenyl)-butyrylamino]-pentanoic acid amide], the “6 Hz (32 mA), fraction of animals” value in test [4] (100 mg/kg @ 0.25 hr) is 1/4 @ 0.25.

The values above are taken from patent publication US12486218B2, “Compounds advantageous in the treatment of central nervous system diseases and disorders” (AurimMed Pharma, Inc., priority 2008, dated 2025).
